Test results reported in patent publication US20020123456A1, “Methods of identifying agents affecting atrophy and hypertrophy” (priority 2001, published 2002).
“Also recorded” adds a separate entry of the source.

Assays:
rat plantaris muscle = experiment: Compensatory hypertrophy of the plantaris after surgical overload; format: in vivo
Protocol: Female Sprague-Dawley rats (250-275 g) were anaesthetized with ketamine/xylazine (50/10 mg kg-1, intraperitoneally); with the use of aseptic surgical techniques the soleus, medial gastrocnemius and lateral gastrocnemius muscles were removed bilaterally, producing a functional overload on the plantaris muscles. In some instances, plasmid DNA (100 μl) was injected into the muscle immediately after the procedure. The hindlimbs of adult female SD rats (225-250 g) were unloaded by suspending their tails with a tail-traction bandage as described29. At the appropriate times, rats were killed and hindlimb muscles were removed, weighed and frozen in isopentane cooled with liquid nitrogen. Weight-matched surgically untreated rats served as controls.
Transfection in vivo. Constructs used encoded the following: (1) myristoylated, c.a. […]
Muscle fibre size was obtained from digitally imaged serial cross-sections of cryostat-sectioned muscle. Individual muscle fibres were outlined and cross-sectional area was determined with a computerassisted image analysis system (MetaMorph™; Universal Imaging Corporation). All data are expressed as means ±s.e.m. […]

[1] = Rapamycin given to control (surgically untreated) adult animals; format: in vivo, rat; conditions: rapamycin for 14 days, data not shown
Text: The above findings indicate that the Akt pathway and its downstream targets are activated during muscle hypertrophy in vivo. To begin to determine the role of these activations, we used treatment in vivo with rapamycin, a quite specific inhibitor of one important Akt target, mTOR. Rapamycin, a selective blocker of mTOR, blocked hypertrophy in all models without causing atrophy in control muscles Rapamycin binds to its intracellular receptor, forming a complex that then binds to and inhibits mTOR activity (Schmeizie, T. & Hall, M. N. Cell 103, 253-262 (2000).). […] Treatment with rapamycin produced no non-specific effects; that is, there was no effect on body weight or the baseline weight of non-overloaded hindlimb muscles in these animals. Further, rapamycin given to control (surgically untreated) adult animals for 14 days had no effect on body weight or muscle weight (data not shown). In addition to the above results from rats, similar results were obtained when this hypertrophy model was performed in mice (data not shown).

calcineurin/NFAT-C1 = experiment: NFAT-C1 phosphorylation and translocation in C2C12 differentiated myotubes (immunoblot); format: cell-based; conditions: for NFAT-C1 phosphorylation state and nuclear translocation: IGF-1 10 ng ml-1 or Ca-I 1.0 μM, 15 min
Text: (§1) As a first step towards examining the roles of the calcineurin/NFAT and PI(3)K/Akt pathways during IGF-induced myotube hypertrophy, we added IGF-1 to differentiated myotubes and determined whether these pathways were activated. Calcineurin is a protein phosphatase that is activated by increases in intracellular calcium levels, which in turn dephosphorylates the NFAT transcription factors; this dephosphorylation results in the translocation of NFATs to the nucleus and subsequent gene transcription. NFAT dephosphorylation and nuclear translocation are therefore markers of calcineurin activation (FIG. 7, right). For markers of activation of the PI(3)K/Akt pathway, the phosphorylation of Akt itself or of downstream targets such as p70S6 kinase (p70S6K), PHAS-1/4E-BP1 or GSK3 were used (FIG. 7).
(§2) Protein analysis of total cell lysates was conducted as described8. The antibodies used were anti-phospho-Erk1/2 (Thr 202/Tyr 204; NEB); anti-phospho-Akt (Ser 473; NEB); anti-phospho- GSK3 (Ser 9/21; NEB); anti-phospho-p70S6K (Thr 389; NEB); anti-phospho-PHAS-1/4E-BP1 (Thr 65; NEB); anti-Erk1/2 (UBI), anti-Akt (NEB), anti-p70S6K (C-18; Santa Cruz), anti-PHAS-1/4EBP1 (Zymed) and anti-NFAT-C1 (7A6; Santa Cruz).
(§3) Immunoprecipitations and immunoblotting were performed as described. Proteins were detected with the chemiluminescence detection system Renaissance; NEN). To measure the enzymatic activity of p70S6K an immunocomplex kinase assay was performed as described (Azpiazu, I., Saltiel, A. R., DePaoli-Roach, A. A. & Lawrence, J. C. J. Biol. Chem. 271, 5033-5039 (1996)).

PI(3)K/Akt/mTOR pathway = experiment: PI(3)K/Akt/mTOR and ERK signalling in C2C12 differentiated myotubes (immunoblot, kinase assay); format: cell-based; conditions: for phosphorylation of downstream targets of the PI(3)K/Akt/mTOR pathway (Akt, p70S6K, GSK3, PHAS-1/4E-BP1): IGF-1 10 ng ml-1 or Ca-I 1.0 μM, 15 min
Text: as §1, §2, §3

C2C12 myotubes = experiment: C2C12 myotube hypertrophy (myotube diameter); format: cell-based; conditions: LY294002 10 μM; for myotube size / hypertrophy, agent alone: D2 myotubes treated at day 2 after fusion, analysed day 4, IGF-1 10 ng ml-1, CsA 5 μM, Ca-I 1 μM; for IGF-1-induced myotube hypertrophy: D2 myotubes, IGF-1 10 ng ml-1 plus CsA 5 μM, rapamycin 2 ng ml-1, PD98059 or Ara-C 10 μM
Protocol: FIG. 9. […] Myotubes were treated at day 2 after fusion with the PI(3)K inhibitor LY294002 (LY; 10 μM), the mTOR inhibitor rapamycin (RAP, 2 ng ml-1), IGF-1 (10 ng ml-1) and with a combination of IGF-1 and each inhibitor, and analyzed for morphological effects at day 4. […] C2C12 myotubes were treated at day 2 after induction of differentiation with IGF-1 (10 ng ml-1) or a combination of Ara-C (10 μM) and IGF-1 (10 ng ml-1), and analysed the next day. Untreated myotubes are shown (CON). […] Quantification of myotube diameters is shown. The average number of nuclei per myotube is presented for each condition in the bottom row.
To distinguish between effects on myoblast differentiation and those on the trophic state of existing myofibres, we exploited the C2C12 myoblast differentiation system. C2C12 myoblasts proliferate until they reach confluence; then, in serum-poor medium, the myoblasts fuse into multi-nucleated myotubes. Differentiated myotubes are predominant by 2 days after fusion (D2 myotubes) and survive for another 3 days. […] IGF-1-induced myotube hypertrophy, as measured by an increase in diameter and an increase in total protein, is normally accompanied by an increase in nuclei within the myofibres.
To obtain more direct evidence, we next used the pharmacological inhibitors of the calcineurin and PI(3)K/Akt pathways in assays of IGF-1-induced myotube hypertrophy. Further, we introduced gene-expression vectors into the myotubes that induced the expression of either activators or dominant-negative blockers of these pathways.
C2C12 myoblasts were cultured and transfected as described (Glass, D. J. et al. Cold Spring Harb. Symp. Quant. Biol. 57, 53-62 (1992)). Flow cytometry and cell sorting were performed on a Cytomation MoFlo (Fort Collins, Colorado) high-speed cell sorter (FACS) (Rommel, C. et al. Science 286, 1738-1741 (1999)). Myoblasts were fused into myotubes at confluence, by shifting the medium to DMEM+2% horse serum. Myotube diameter was quantified as follows: 10 fields were chosen randomly, and approximately 10 myotubes were measured per field. The average diameter per myotube was calculated as the mean of ten measurements taken along the length of the myotube. For the constitutively active Akt, kinaseinactive Akt, wild-type Akt, wild-type SHIP2, dominant-negative SHIP2, constitutively active p70S6K and dominant-negative GSK3β constructs, transfected myotubes were determined by the co-expression of enhanced green fluorescent protein (EGFP; see below for construct details); thus, only transfected myotubes were assessed for hypertrophy. For the tetracycline-inducible calcineurin, myotubes expressing calcineurin were identified by EGFP expression, and comparisons were made between EGFP-positive and EGFP-negative myotubes. […]

Molecule	NFAT-C1 phosphorylation state and nuclear translocation (calcineurin/NFAT-C1)	phosphorylation of downstream targets of the PI(3)K/Akt/mTOR pathway (Akt, p70S6K, GSK3, PHAS-1/4E-BP1) (PI(3)K/Akt/mTOR pathway)	myotube size / hypertrophy, agent alone (C2C12 myotubes)	IGF-1-induced myotube hypertrophy (C2C12 myotubes)	also measured
CO[C@H]1C[C@@H]2CC[C@@H](C)[C@@](O)(O2)C(=O)C(=O)N2CCCC[C@H]2C(=O)O[C@H]([C@H](C)C[C@@H]2CC[C@@H](O)[C@H](OC)C2)CC(=O)[C@H](C)/C=C(\C)[C@@H](O)[C@@H](OC)C(=O)[C@H](C)C[C@H](C)/C=C/C=C/C=C/1C [rapamycin]	–	–	–	–	blockage of hypertrophy (rat plantaris muscle; adaptive hypertrophy in adult animals, rapamycin): 95%; body weight or baseline weight of non-overloaded hindlimb muscles (rat plantaris muscle; overloaded rats treated with rapamycin 1.5 mg kg-1 i.p. daily): no effect; body weight or muscle weight [1]: had no effect
IGF-1	hyperphosphorylation of NFAT	induced the phosphorylation	resulting in hypertrophy	–	calcium-ionophore-induced dephosphorylation and translocation of NFAT-C1 (calcineurin/NFAT-C1; Ca-I 1.0 μM, CsA 5 μM before stimulation or IGF-1 10 ng ml-1 simultaneously): blunted
CNc1ccc2oc(C[C@H]3O[C@@]4(CC[C@H]3C)O[C@H]([C@H](C)C(=O)c3ccc[nH]3)[C@H](C)C[C@H]4C)nc2c1C(=O)O [calcium ionophore, A23187]	dephosphorylation-induced downshift in NFAT	none could be induced	thinner myotubes	–	phosphorylation of downstream targets of the PI(3)K/Akt/mTOR pathway (Akt, p70S6K, GSK3, PHAS-1/4E-BP1) (PI(3)K/Akt/mTOR pathway; listed as Ca-I): had no effect on these kinases
cytosine-β-D-arabinofuranoside [Ara-C]	–	–	–	myotube diameter and total protein still increase; also recorded: does not inhibit IGF-1-mediated hypertrophy	–
COc1cccc(-c2cc(=O)c3ccccc3o2)c1N [PD98059]	–	–	–	did not block phenotypic hypertrophy	IGF-1-induced Akt / PI(3)K/Akt pathway activation (PI(3)K/Akt/mTOR pathway; IGF-1 10 ng ml-1 15 min, CsA 5 μM, LY294002 10 μM, rapamycin 2 ng ml-1, PD98059): without affecting steps in the PI(3)K/Akt/mTOR pathway; IGF-1-induced ERK activation (PI(3)K/Akt/mTOR pathway; IGF-1 10 ng ml-1 15 min, LY294002 10 μM, PD98059 10 μM): did indeed block ERK activation
